Test results taken from EP0555116B1, “Compositions based on antiseptics and their applications” (HUTCHINSON, priority 1992, dated 1993).

What was measured:
S. aureus ATCC 6538 = experiment: Disinfection time test (Essai 2, Tables D-F), reaction at 22°, subcultures 72 h at 37°C; assay type: cell-based, Staphylococcus aureus
Procedure: (§1) Un autre essai a été réalisé à partir des solutions suivantes : • 100 ml d'une solution à 0,1 % de digluconate de chlorhexidine (pH 6) et • 100 ml d'une solution à 0,1 % de Bardac 22®.
(§2) Les tests ont été réalisés conformément au protocole décrit dans le Chapitre I/2.1 et 2.2 de Richtlinien für die Prüfung und Bewertung chemischer Desinfektionsverfahren der DGHM, Stand 1.1., 1981).
(§3) Les tests dont les résultats sont illustrés aux Tableaux D, E et F ont été réalisés à une température de réaction de 22° avec une incubation des sous-cultures 72 heures à 37°C avec comme substances inactivantes : Tween® 80 3 % + saponine 3 % + cystéine 0,1 % + histidine 0,1 %; ces Tableaux illustrent respectivement l'activité bactéricide et fongicide d'une solution aqueuse à 0,1 % de digluconate de chlorhexidine, d'une solution aqueuse à 0,1 % de Bardac 22® et d'un mélange à part égale des deux composés et montrent l'action des antiseptiques précités, en fonction du temps de contact, et font apparaître la même synergie d'action de l'association que ci-dessus, dans la mesure où l'association des deux composés permet de diminuer significativement leur concentration, pour l'obtention d'un même effet. TABLEAU D

[1] = test system: cellules fibroblastiques humaines; experiment: Cytotoxicity control of the products on human fibroblast cultures (10 tubes, 3 days); assay type: cell-based; conditions: solution à 0,04 %; pur et dilutions 10^-1 à 10^-3, 0,1 ml dans 1 ml
From the text: On réalise des contrôles de cytotoxicité des produits pour les cultures cellulaires utilisées dans les tests, c'est-à-dire les cellules fibroblastiques humaines.
Les cellules sont cultivées en milieu de Dulbecco enrichi en sérum de veau foetal à 10 %; au moment de leur utilisation, les cellules sont lavées et on utilise le même milieu de culture, mais dépourvu de sérum de veau.
Pour chaque produit testé ou chaque composition, on a utilisé 10 tubes de culture cellulaire et après inoculation du produit, les tubes ont été surveillés pendant trois jours.
Chaque produit a été successivement utilisé pur, et aux dilutions 10^-1, 10^-2, 10^-3 et ajouté aux tubes de culture contenant 1 ml de milieu nutritif, sous le volume de 0,1 ml.

E. coli ATCC 11229 = experiment: Disinfection time test (Essai 2, Tables D-F), reaction at 22°, subcultures 72 h at 37°C; assay type: cell-based, Escherichia coli
Procedure: as §1, §2, §3

CCCCCCCCCC[N+](C)(C)CCCCCCCCCC [Bardac®, chlorure de didécyldiméthylammonium]
-: croissance (S. aureus ATCC 6538; Conc. 1 % (vol/vol), 30 min) | croissance (S. aureus ATCC 6538; Conc. 1 % (vol/vol), 60 min) | croissance (S. aureus ATCC 6538; Conc. 5 % (vol/vol), 15 min) | croissance (S. aureus ATCC 6538; Conc. 5 % (vol/vol), 30 min) | croissance (S. aureus ATCC 6538; Conc. 5 % (vol/vol), 60 min) | croissance (S. aureus ATCC 6538; Conc. 10 % (vol/vol), 3 min) | croissance (S. aureus ATCC 6538; Conc. 10 % (vol/vol), 5 min) | croissance (S. aureus ATCC 6538; Conc. 10 % (vol/vol), 15 min) | croissance (S. aureus ATCC 6538; Conc. 10 % (vol/vol), 30 min) | croissance (S. aureus ATCC 6538; Conc. 10 % (vol/vol), 60 min) | croissance (S. aureus ATCC 6538; Conc. 25 % (vol/vol), 3 min) | croissance (S. aureus ATCC 6538; Conc. 25 % (vol/vol), 5 min) | croissance (S. aureus ATCC 6538; Conc. 25 % (vol/vol), 15 min) | croissance (S. aureus ATCC 6538; Conc. 25 % (vol/vol), 30 min) | croissance (S. aureus ATCC 6538; Conc. 25 % (vol/vol), 60 min) | croissance (E. coli ATCC 11229; Conc. 5 % (vol/vol), 15 min) | croissance (E. coli ATCC 11229; Conc. 5 % (vol/vol), 30 min) | croissance (E. coli ATCC 11229; Conc. 5 % (vol/vol), 60 min) | croissance (E. coli ATCC 11229; Conc. 10 % (vol/vol), 5 min) | croissance (E. coli ATCC 11229; Conc. 10 % (vol/vol), 15 min) | croissance (E. coli ATCC 11229; Conc. 10 % (vol/vol), 30 min) | croissance (E. coli ATCC 11229; Conc. 10 % (vol/vol), 60 min) | croissance (E. coli ATCC 11229; Conc. 25 % (vol/vol), 1 min) | croissance (E. coli ATCC 11229; Conc. 25 % (vol/vol), 3 min) | croissance (E. coli ATCC 11229; Conc. 25 % (vol/vol), 5 min) | croissance (E. coli ATCC 11229; Conc. 25 % (vol/vol), 15 min) | croissance (E. coli ATCC 11229; Conc. 25 % (vol/vol), 30 min) | croissance (E. coli ATCC 11229; Conc. 25 % (vol/vol), 60 min)
+: croissance (S. aureus ATCC 6538; Conc. 0,1 % (vol/vol), 1 min) | croissance (S. aureus ATCC 6538; Conc. 0,1 % (vol/vol), 3 min) | croissance (S. aureus ATCC 6538; Conc. 0,1 % (vol/vol), 5 min) | croissance (S. aureus ATCC 6538; Conc. 0,1 % (vol/vol), 15 min) | croissance (S. aureus ATCC 6538; Conc. 0,1 % (vol/vol), 30 min) | croissance (S. aureus ATCC 6538; Conc. 0,1 % (vol/vol), 60 min) | croissance (S. aureus ATCC 6538; Conc. 0,05 % (vol/vol), 1 min) | croissance (S. aureus ATCC 6538; Conc. 0,5 % (vol/vol), 1 min) | croissance (S. aureus ATCC 6538; Conc. 0,05 % (vol/vol), 3 min) | croissance (S. aureus ATCC 6538; Conc. 0,5 % (vol/vol), 3 min) | croissance (S. aureus ATCC 6538; Conc. 0,05 % (vol/vol), 5 min) | croissance (S. aureus ATCC 6538; Conc. 0,5 % (vol/vol), 5 min) | croissance (S. aureus ATCC 6538; Conc. 0,05 % (vol/vol), 15 min) | croissance (S. aureus ATCC 6538; Conc. 0,5 % (vol/vol), 15 min) | croissance (S. aureus ATCC 6538; Conc. 0,05 % (vol/vol), 30 min) | croissance (S. aureus ATCC 6538; Conc. 0,5 % (vol/vol), 30 min) | croissance (S. aureus ATCC 6538; Conc. 0,05 % (vol/vol), 60 min) | croissance (S. aureus ATCC 6538; Conc. 0,5 % (vol/vol), 60 min) | croissance (S. aureus ATCC 6538; Conc. 1 % (vol/vol), 1 min) | croissance (S. aureus ATCC 6538; Conc. 1 % (vol/vol), 3 min) | croissance (S. aureus ATCC 6538; Conc. 1 % (vol/vol), 5 min) | croissance (S. aureus ATCC 6538; Conc. 1 % (vol/vol), 15 min) | croissance (S. aureus ATCC 6538; Conc. 5 % (vol/vol), 1 min) | croissance (S. aureus ATCC 6538; Conc. 5 % (vol/vol), 3 min) | croissance (S. aureus ATCC 6538; Conc. 5 % (vol/vol), 5 min) | croissance (S. aureus ATCC 6538; Conc. 10 % (vol/vol), 1 min) | croissance (S. aureus ATCC 6538; Conc. 25 % (vol/vol), 1 min) | croissance (E. coli ATCC 11229; Conc. 0,1 % (vol/vol), 1 min) | croissance (E. coli ATCC 11229; Conc. 0,1 % (vol/vol), 3 min) | croissance (E. coli ATCC 11229; Conc. 0,1 % (vol/vol), 5 min) | croissance (E. coli ATCC 11229; Conc. 0,1 % (vol/vol), 15 min) | croissance (E. coli ATCC 11229; Conc. 0,1 % (vol/vol), 30 min) | croissance (E. coli ATCC 11229; Conc. 0,1 % (vol/vol), 60 min) | croissance (E. coli ATCC 11229; Conc. 0,05 % (vol/vol), 1 min) | croissance (E. coli ATCC 11229; Conc. 0,5 % (vol/vol), 1 min) | croissance (E. coli ATCC 11229; Conc. 0,05 % (vol/vol), 3 min) | croissance (E. coli ATCC 11229; Conc. 0,5 % (vol/vol), 3 min) | croissance (E. coli ATCC 11229; Conc. 0,05 % (vol/vol), 5 min) | croissance (E. coli ATCC 11229; Conc. 0,5 % (vol/vol), 5 min) | croissance (E. coli ATCC 11229; Conc. 0,05 % (vol/vol), 15 min) | croissance (E. coli ATCC 11229; Conc. 0,5 % (vol/vol), 15 min) | croissance (E. coli ATCC 11229; Conc. 0,05 % (vol/vol), 30 min) | croissance (E. coli ATCC 11229; Conc. 0,5 % (vol/vol), 30 min) | croissance (E. coli ATCC 11229; Conc. 0,05 % (vol/vol), 60 min) | croissance (E. coli ATCC 11229; Conc. 0,5 % (vol/vol), 60 min) | croissance (E. coli ATCC 11229; Conc. 1 % (vol/vol), 1 min) | croissance (E. coli ATCC 11229; Conc. 1 % (vol/vol), 3 min) | croissance (E. coli ATCC 11229; Conc. 1 % (vol/vol), 5 min) | croissance (E. coli ATCC 11229; Conc. 1 % (vol/vol), 15 min) | croissance (E. coli ATCC 11229; Conc. 1 % (vol/vol), 30 min) | croissance (E. coli ATCC 11229; Conc. 1 % (vol/vol), 60 min) | croissance (E. coli ATCC 11229; Conc. 5 % (vol/vol), 1 min) | croissance (E. coli ATCC 11229; Conc. 5 % (vol/vol), 3 min) | croissance (E. coli ATCC 11229; Conc. 5 % (vol/vol), 5 min) | croissance (E. coli ATCC 11229; Conc. 10 % (vol/vol), 1 min) | croissance (E. coli ATCC 11229; Conc. 10 % (vol/vol), 3 min)
non toxique à la dilution 10^-3: toxicité pour les cultures cellulaires [1]
